In patent US9511111B2, “Methods for the treatment of X-linked hypophosphatemia and related disorders” (WISCONSIN ALUMNI RESEARCH FOUNDATION, priority 2010, dated 2016):
Entries after “also recorded” stand apart in the source; their conditions may differ.

Tests used:
[1] = test system: hyp-mice; assay: In vivo daily ip injection of D6R in hyp mice (murine model of XLH); set-up: species or system mouse
Experimental: In vivo injection of D6R in normal and hyp mice: 3-week old normal and hyp mice were randomly separated into two groups for each strain. One group of mice received daily ip injection of saline. […] Blood samples were obtained every 3 days via retro-orbital bleedings. At the end of the in vivo injection period, the animals were euthanized with an overdose of sodium pentobarbital (65 mg/kg). The final blood sample was collected by cardiac puncture for large volume of serum preparation. Kidney and femoral bone samples were collected for total RNA and protein extractions.
(§1) Biochemistry measurements: Serum Pi levels were measured using Phosphorus Liqui-UV kit from Stanbio Laboratory (Boerne, Tex.). Serum Ca levels were measured using calcium Liquicolor kit from Stanbio following the manufacturer's protocols. Serum intact FGF-23 was measured employing a FGF-23 ELISA kit obtained from Kainos Laboratories, Japan. Serum C-terminal FGF-23 was measured using ELISA kit from Immunotopics, CA.
Real-time RT-PCR for mRNA expression: Total RNA was isolated from kidney samples and femurs. The femurs were trimmed of all fat, homogenized into fine powder in liquid nitrogen using porcelain motor and pestle. Total RNA was then extracted using TRIzol Reagent (Invitrogen, CA) following the manufacturer's protocol. Kidney samples were rinsed free of blood using ice-cold PBS buffer. Then the kidney was homogenized in TRIzol Reagent using mortor and pestle. Then, the renal total RNA was isolated following the manufacturer's protocol. RT reactions were performed using Bio-Rad iScript cDNA synthesis kit (Bio-Rad, CA) with poly-A primers. FGF-23 mRNA, as well as Npt2 mRNA and 25(OH)D3-1α-hydroxylase mRNA were quantitated by real-time PCR using gene specific primers.
Western blot for protein expression: Kidney proteins were isolated using sucrose buffer containing 20 mM HEPES, 1 mM EDTA, 255 mM sucrose, 0.4 mM phenylmethylsulfonyl fluoride, and 2 μg/ml leupeptin. The homogenate was centrifuged at 1,500 g for 15 min, and the pellet containing mitochondrial protein, including 25(OH)D-1α-hydroxylase, was re-suspended in the same buffer, aliquoted, and stored at −80° C. until use. The supernatant that contained the plasma membrane protein obtained after centrifugation was also collected for the measurement of Npt2 protein. Bone samples were homogenized into fine powder in liquid nitrogen. Protein contents were isolated using T-PER tissue protein extraction reagent with Halt protease inhibitor cocktail (Thermo Scientific, Rockford, Ill.).
A 20 μg aliquot of the respective protein extracts was electrophoresed in 10% SDS-PAGE gel and transferred onto a nitrocellulose membrane. The membrane was then washed and probed with specific antibodies and subsequently with specific secondary antibodies conjugated with HRP. To quantitate the immunoblotting signal, 6 ml of chemiluminescence detection solution (ECL plus, Amersham, UK) was added, and the signal was detected directly by the fluorescent scanner (Storm 860, Amersham, UK). Band density was analyzed using ImageQuant 5.2 software (Molecular Dynamics, Sunnyvale, Calif.). The antibody was then removed by incubating the membrane in reprobing solution (62.5 mM Tris-HCl, 2% SDS, and 100 mM 2-mercaptoethanol, pH 6.7) for 30 min, 50° C. The membrane was then blocked and probed with specific anti-β-actin antibody to verify the loading equivalence among samples.
High-resolution radiography (x-ray) for the femus: mouse femurs were extracted and incubated in lysis buffer (2×SSC, 0.2% SDS, 10 mM EDTA, 10 mg/ml proteinase K) for 2 days. After the surrounding muscles were digested, the femurs were washed in PBS buffer and X-rayed on a Faxitron model MX-20 Specimen Radiography System with a digital camera attached (Faxitron x-ray Corp., Buffalo Grove, Ill.). […]

[2] = test system: normal mice; assay: In vivo daily ip injection of D6R in normal mice; set-up: species or system mouse; details: D6R treated, daily ip for 5 weeks, saline 200 ± 15.5, p<0.001
Experimental: In vivo injection of D6R in normal and hyp mice: 3-week old normal and hyp mice were randomly separated into two groups for each strain. One group of mice received daily ip injection of saline. The other group of mice received daily ip injection of D6R 1.5 μg/kg/day for 5 weeks. Blood samples were obtained every 3 days via retro-orbital bleedings. At the end of the in vivo injection period, the animals were euthanized with an overdose of sodium pentobarbital (65 mg/kg). The final blood sample was collected by cardiac puncture for large volume of serum preparation. Kidney and femoral bone samples were collected for total RNA and protein extractions.
as §1

[3] = test system: SPC2; assay: SPC2 activity in hTert osteoblasts (MOB) in culture; format: cell-based; details: D6R 50 μM, p<0.01
Experimental: (§2) The dose-dependent effects of D6R (0-200 μM) on SPC2 activity in hTert osteoblasts (MOB) and MC3T3 osteoblasts in culture were also examined. […] Treatment of MC3T3 cells for a similar period likewise increased enzyme activity at 200 μM (124±14 vs 171±7 fluorescent units/min; p<0.05). Treatment of the MOB cell line with D6R, and the resulting increase in SPC2 enzyme activity decreased Fgf23 mRNA expression (1.0±0.7 vs 0.2±0.1 fold; p<0.001).

[4] = test system: SPC2; assay: SPC2 activity in MC3T3 osteoblasts in culture; format: cell-based; details: MC3T3 cells, D6R 200 μM, similar period (48 hours); control 124±14; p<0.05
Experimental: as §2

[5] = test system: MOB cells (hTert osteoblasts); assay: mRNA expression in MOB cell line treated with D6R; format: cell-based
Experimental: as §2

With hexa-D-arginine [D6R] the mineral apposition rate ([1]; D6R treated hyp-mice, FIGS. 12-13) was “normalization; also recorded: restoration of normal bone mineral apposition rate”, the “serum FGF23 concentration” value ([1]; Hyp-mice, D6R treated, daily ip for 5 weeks, saline 2126 ± 281, p<0.001) was 1682 ± 191 and the “bone modeling (long bone circumference)” value ([1]; hyp mouse) was “decreased to normal”. For the same substance, the “length of the long bones in the extremities” value ([1]; hyp mouse) was “increased”, the “renal 25(OH)D3-1α-hydroxylase activity (translational abnormality)” value ([1]; hyp mouse) was “normalized” and the “degradation of serum FGF23” value ([1]; hyp mouse, D6R treatment, FIG. 3B) was “increased”. The “degradation of intact FGF23 in hyp-mouse bone” value ([1]; hyp mouse, ip x 5 weeks) was “enhanced”, the “Fgf23 mRNA expression” value ([1]; hyp mouse, ip x 5 weeks, FIG. 3A) was “decreased” and the “Npt2a mRNA” value ([1]; hyp mouse, kidney, FIGS. 2A-B) was “normalization”. The “renal phosphate wasting and serum phosphorus levels” value ([1]; hyp mouse, FIG. 1) was “normalization”, the “Sost mRNA and the coded protein Sclerostin” value ([1]; hyp mouse, FIG. 4) was “suppression” and the “bone 7B2 mRNA expression” value ([1]; hyp mouse, FIG. 5) was “stimulation”. The bone density normalization ([1]; hyp mouse, FIG. 9) was “increasing”, the “Osteoid surface/Bone surface (OS/BS)” value ([1]; hyp mouse, FIG. 11A) was “decreasing” and the “Mineralized area/Total Area (MA/TA ratios)” value ([1]; hyp mouse, FIG. 11B) was “enhancing”. The rickets and osteomalacia ([1]; hyp mouse, FIGS. 6-13) was “cured”, the “serum FGF23 concentration” value [2] was 120 ± 12.5 and the “SPC2 activity, h-Tert osteoblasts” value ([3]; control 121 ± 18) was 329 ± 17 fluorescent units. The SPC2 activity ([3]; hTert osteoblasts, 48 hours, control 121±18) was 329±17 fluorescent units/min, the SPC2 enzyme activity [4] was 171±7 fluorescent units/min and the “Fgf23 mRNA expression” value ([5]; MOB cell line treated with D6R, control 1.0±0.7, p<0.001) was 0.2±0.1 fold. The “SPC2 mRNA expression” value ([5]; MOB cells treated with D6R) was “without alteration” and the “7B2 mRNA expression” value ([5]; MOB cells treated with D6R, control 1.0±0.2, p<0.001) was 3.6±0.4 fold.
